Experimental data from patent US11926610B1, “9-(2-hydroxypyridin-3-yl)10-(2-hydroxyethyl)-3,6-diphenyl-3,4,6,7,9,10-hexahydroacridine1,8(2H,5H)-dione as an antimicrobial compound” (KING FAISAL UNIVERSITY, priority 2023, dated 2024).

Columns and labels:
Type in all cases: cell-based
Settings in all cases: after 10, 20, 40 and 60 minutes at all dilutions 1:100, 1:200, 1:400, 1:800
[1] = test system: Candida albicans; assay: Antimicrobial screening by agar dilution, Candida albicans
Method: (§1) The antibacterial properties of the synthesized compound 9-(2-hydroxypyridin-3-yl)-10-(2-hydroxyethyl)-3,6-diphenyl-3,4,6,7,9,10-hexahydroacridine1,8(2H,5H)-dione were studied by the method of agar dilution. Test solutions of each compound was prepared in concentration of 1% using dimethylformamide as a solvent then they are diluted in physiological solution to obtain the final experimental dilutions 1:100, 1:200, 1:400, 1:800. The effect of these substances are compared with furacillin in a controllable study. The testing microbes used were gram positive bacteria Staphylococcus aureus, gram negative bacteria Pseudomonas aeruginosa and Escherichia coli and Candida albicans fungus. The experiments used for this survey were meat-pentonlu agar (EPA) for cultivation of bacteria and Saburo environment for the fungus. Each experiment used 1 mL of test solution on each plate […]. Two drops of emulsified with microbes feel were added. All experimental samples were taken from the agar after 10, 20, 40, 60 minutes in the environment on the basis of Patrk planted. The bacteria were cultivated at a temperature of 37° C. for 1 day and the mushroom was kept in a thermostat for 2 hours at a temperature of 28° C. Then results were checked.

[2] = test system: Staphylococcus aureus; assay: Antimicrobial screening by agar dilution, Staphylococcus aureus
Method: as §1

[3] = test system: Pseudomonas aeruginosa; assay: Antimicrobial screening by agar dilution, Pseudomonas aeruginosa
Method: as §1

[4] = test system: Escherichia coli; assay: Antimicrobial screening by agar dilution, Escherichia coli
Method: as §1

Measured: inhibition activity (in words)

O=C1CC(c2ccccc2)CC2=C1C(c1cccnc1O)C1=C(CC(c3ccccc3)CC1=O)N2CCO (stereo not shown) [9-(2-hydroxypyridin-3-yl)-10-(2-hydroxyethyl)-3,6-diphenyl-3,4,6,7,9,10-hexahydroacridine1,8(2H,5H)-dione]
highest inhibition activity: all assays above
